The results in this text go back to patent publication US6642250B2, “1,8-naphthyridin-2(1H)-one derivatives” (Grelan Pharmaceutical Co., Ltd., priority 1999, dated 2003).

The test system of data set [1] is T1, PDE IV.
T1 construct: other: PDE IV from porcine hearts, cAMP 1 μM
As to the kind of experiment: PDE inhibition, type IV PDE (cAMP substrate). Conditions: PDE IV from porcine hearts, cAMP 1 μM; read-out: Inhibition of PDE Isoenzymes (IC50) IV. In kind it is biochemical. On the procedure:
(§1) The assays for PDE activity were conducted according to Nicholson et al. method (Br. J. Pharmacol., 97, 889 (1989)).
(§2) Among PDE isozymes, type I, II, III and IV PDEs as used herein were separated from porcine hearts by using an anion exchange chromatography. Type V PDE was also separated from porcine aortae with an anion exchange chromatography and used herein.
(§3) Each PDE isozyme was admixed with ethylene glycol (EG) to adjust the final EG concentration to 30%, then stored at −20° C. and diluted when used. The enzymatic activity for PDE I and V was measured using cGMP as a substrate while that for POE II, III and IV was measured using cAMP.
(§4) [^3H]-cAMP (962 GBq/mmol; Amersham, 25 μl (100,000 cpm)) or [^3H]-cGMP (962 GBq/mmol; Amersham, 25 μl (100,000 cpm)) was added together with each PDE isozyme (25 μl) to an incubation buffer solution with the composition given below to adjust the total volume to 250 μl. Each test compound was dissolved in DMSO to adjust the final concentration to 1% (2.5 μl/tube).
(§5) Incubation buffer solution (pH7.5):
(§6) Tris-HCl (50 mM), magnesium chloride (6 mM), dithiothreitol
(§7) (2.5 mM), 5-nucleotidase (4 μg/ml), bovine serum albumin
(§8) (0.23 mg/ml), and cAMP (1 μM) [or cGMP (1 μM)]
(§9) A mixture of the aforementioned test compound solution and the buffer solution was incubated at 30° C. for 20 minutes. The reaction was quenched by admixing with 1 ml of anion exchange resin slurry (AG1-X8, 200-400 meshes, chloride form; Bio-Rad) to absorb unreacted substrates.
(§10) After the reaction stopped, the mixture was centrifuged at 200×g for 10 minutes, and the resulting supernatant was collected with vials in 250 μl aliquots. To each vial was added 5 ml of ACS-II (scintillator, Amersham). The radioactivity was measured with a liquid scintillator counter for [^3H]-adenosine or [^3H]-guanosine and set as the PDE activity. The measurements were conducted under conditions wherein the enzymatic activity was elevated by adding calmodulin (20 U/ml; Amersham) and calcium chloride (0.1 mM) for PDE-I and cGMP (1 μM) for PDE II, respectively.
(§11) The % inhibition was calculated for test compounds, and IC50 (the concentration of each test compound required for 50% inhibition) was obtained by Probit method. The aforementioned rolipram ((−)-isomer, optical purity: 91% e.e.) known as the PDE IV inhibitor in the prior art was used for the reference compound in this assay.
Further, for a comparison with compounds as disclosed in JP, A, 63-159382 (1988), the PDE-inhibiting activity was also measured for Compounds A and D in Table 1 of JP, A, 63-159382 (1988).

Data set [2] has as its target T2, PDE V (Sus scrofa, UniProt A0A287B475).
T2 construct: Type V PDE was also separated from porcine aortae with an anion exchange chromatography and used herein
In words: PDE inhibition, type V PDE (cGMP substrate). In kind it is biochemical. The note with it: PDE V from porcine aortae, cGMP 1 μM; read-out: Inhibition of PDE Isoenzymes (IC50) V. On the procedure: as §1, §2, §3, §4, §5, §6, §7, §8, §9, §10, §11

For data set [3], the target named is T3, PDE II (Sus scrofa, UniProt F1SUV3).
T3 sequence (F1SUV3 1-945): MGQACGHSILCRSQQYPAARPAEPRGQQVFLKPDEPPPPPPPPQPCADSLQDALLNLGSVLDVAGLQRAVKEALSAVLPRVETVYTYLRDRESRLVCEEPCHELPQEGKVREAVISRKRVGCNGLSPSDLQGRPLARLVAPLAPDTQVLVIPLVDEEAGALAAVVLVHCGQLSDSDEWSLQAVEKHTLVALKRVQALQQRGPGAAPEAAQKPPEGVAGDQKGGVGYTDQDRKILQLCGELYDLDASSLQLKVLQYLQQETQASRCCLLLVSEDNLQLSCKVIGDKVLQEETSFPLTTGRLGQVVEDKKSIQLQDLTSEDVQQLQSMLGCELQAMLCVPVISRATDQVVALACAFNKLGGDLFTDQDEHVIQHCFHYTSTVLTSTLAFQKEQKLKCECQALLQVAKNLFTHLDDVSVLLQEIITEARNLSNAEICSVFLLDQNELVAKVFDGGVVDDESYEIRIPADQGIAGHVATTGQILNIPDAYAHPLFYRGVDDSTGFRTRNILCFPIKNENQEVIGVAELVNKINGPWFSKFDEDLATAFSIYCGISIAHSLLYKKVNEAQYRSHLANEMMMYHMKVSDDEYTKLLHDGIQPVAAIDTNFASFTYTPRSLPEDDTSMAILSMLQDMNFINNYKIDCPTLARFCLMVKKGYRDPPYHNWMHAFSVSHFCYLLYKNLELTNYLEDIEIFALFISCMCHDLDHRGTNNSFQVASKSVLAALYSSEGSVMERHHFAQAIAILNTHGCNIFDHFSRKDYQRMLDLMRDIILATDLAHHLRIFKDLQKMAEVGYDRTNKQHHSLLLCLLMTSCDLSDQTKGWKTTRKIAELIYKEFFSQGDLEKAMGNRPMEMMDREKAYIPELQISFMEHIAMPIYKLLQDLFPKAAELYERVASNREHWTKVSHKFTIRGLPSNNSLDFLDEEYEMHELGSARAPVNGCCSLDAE
In words: PDE inhibition, type II PDE (cAMP substrate, cGMP added). The note with it: PDE II from porcine hearts, cAMP 1 μM; read-out: Inhibition of PDE Isoenzymes (IC50) II. In kind it is biochemical. On the procedure: as §1, §2, §3, §4, §5, §6, §7, §8, §9, §10, §11

For data set [4], the system named is Female beagles. The class given is in vivo. The note with it: fed female beagles, oral, emesis within 3 hours. On the procedure: Female beagles (each group consisting of 3 dogs) as used herein were fed. One hour later, a suspension of each test compound in 0.5% CMC—Na solution was administered orally to the animals in a forced manner. […] Next, each maximum tolerance dose against emesis was obtained. […]

As for `O=c1c(CCc2cccnc2)cc2cccnc2n1-c1cccc([N+](=O)[O-])c1` [Example No. 5, 1-(3-Nitrophenyl)-3-[2-(pyridin-3-yl)ethyl]-1,8-naphthyridin-2(1H)-one], the results for the IC50 in data set [1], in data set [2] and in data set [3] were 0.06 µM, 13 µM and more than 100 µM, respectively.
As to `O=c1c(CCCc2ccncc2)cc2cccnc2n1-c1cccnc1` [Example No. 23, 1-(Pyridin-3-yl)-3-[3-(pyridin-4-yl)propyl]-1,8-naphthyridin-2(1H)-one], the values for the IC50 in data set [1], in data set [2] and in data set [3] were 1.2 µM, more than 100 µM and more than 100 µM, respectively.
As for `O=c1c(CCCCCc2cccnc2)cc2cccnc2n1-c1cccc([N+](=O)[O-])c1` [Example No. 16, 1-(3-Nitrophenyl)-3-[5-(pyridin-3-yl)pentyl]-1,8-naphthyridin-2(1H)-one], the IC50 (in general, the concentration that gives 50% inhibition) in data set [1] came out at 1.9 µM; in data set [2], 7.4 µM; in data set [3], 63 µM.
Consider `COc1ccc(C2CNC(=O)C2)cc1OC1CCCC1` (single isomer, unassigned) [Rolipram, rolipram, reference compound], for which the “Maximum Tolerance Dose against Emesis” value in data set [4] was less than 0.1 mg/kg. For the same compound, the IC50 in data set [1] is 0.78 to 3.2 µM; in data set [3] it was more than 100 µM.
As for `O=c1c(Cc2cccnc2)cc2cccnc2n1-c1cccc([N+](=O)[O-])c1` [Example No. 2, 1-(3-Nitrophenyl)-3-(pyridin-3-ylmethyl)-1,8-naphthyridin-2(1H)-one], the 50% inhibitory concentration (IC50) is 0.11 µM in data set [1], 16 µM in data set [2] and more than 100 µM in data set [3].
In the same order, the values of `O=c1c(CCCc2cccnc2)cc2cccnc2n1-c1cccc([N+](=O)[O-])c1` [Example No. 7, 1-(3-Nitrophenyl)-3-[3-(pyridin-3-yl)propyl]-1,8-naphthyridin-2(1H)-one] are 1.3 µM, 4.7 µM and more than 100 µM.
Consider `O=c1c(CCc2ccncc2)cc2cccnc2n1-c1cccc([N+](=O)[O-])c1` [Example No. 6, 1-(3-Nitrophenyl)-3-[2-(pyridin-4-yl)ethyl]-1,8-naphthyridin-2(1H)-one], for which the IC50 in data set [1] is 0.16 µM; in data set [2] it was 15 µM; in data set [3], more than 100 µM.
For the compound `CSc1cccc(-n2c(=O)c(CCCc3ccncc3)cc3cccnc32)c1` [Example No. 10, 1-(3-Methylthiophenyl)-3-[3-(pyridin-4-yl)propyl]-1,8-naphthyridin-2(1H)-one], the figures for the 50% inhibitory concentration (IC50) in data set [1], in data set [2] and in data set [3] were 1.5 µM, 13 µM and 52 µM, respectively.
In the case of `O=c1c(CCCc2ccncc2)cc2cccnc2n1-c1cccc([N+](=O)[O-])c1` [Example No. 8, 1-(3-Nitrophenyl)-3-[3-(pyridin-4-yl)propyl]-1,8-naphthyridin-2(1H)-one], in data set [4], the “Maximum Tolerance Dose against Emesis” value is on record as 0.3 mg/kg. Besides, the IC50 is 0.44 µM in data set [1], more than 100 µM in data set [2] and more than 100 µM in data set [3].
Regarding `O=c1c(CCCCc2cccnc2)cc2cccnc2n1-c1cccc([N+](=O)[O-])c1` [Example No. 14, 1-(3-Nitrophenyl)-3-[4-(pyridin-3-yl)butyl]-1,8-naphthyridin-2(1H)-one], the IC50 in data set [1] worked out at 1.5 µM; in data set [2] it was 5.1 µM; in data set [3], 85 µM.
